# Data published in ChEMBL document CHEMBL5257145, “1,2,4-Triazine Derivatives as NLRP3 Inhibitors for Treating Diseases” (ACS Med Chem Lett, 2023).
# Target: NACHT, LRR and PYD domains-containing protein 3 (Homo sapiens, UniProt Q96P20)
# Assay: Inhibition of NLRP3 inflammasome activation in PMA-differentiated human THP-1 cells assessed as reduction in IL-1beta secretion preincubated for 20 hrs followed by nigericin addition and measured after 3 hrs by HTRF assay
# Format: cell-based
# Sequence of NACHT, LRR and PYD domains-containing protein 3 (Q96P20 whole entry, the tested form may be a part): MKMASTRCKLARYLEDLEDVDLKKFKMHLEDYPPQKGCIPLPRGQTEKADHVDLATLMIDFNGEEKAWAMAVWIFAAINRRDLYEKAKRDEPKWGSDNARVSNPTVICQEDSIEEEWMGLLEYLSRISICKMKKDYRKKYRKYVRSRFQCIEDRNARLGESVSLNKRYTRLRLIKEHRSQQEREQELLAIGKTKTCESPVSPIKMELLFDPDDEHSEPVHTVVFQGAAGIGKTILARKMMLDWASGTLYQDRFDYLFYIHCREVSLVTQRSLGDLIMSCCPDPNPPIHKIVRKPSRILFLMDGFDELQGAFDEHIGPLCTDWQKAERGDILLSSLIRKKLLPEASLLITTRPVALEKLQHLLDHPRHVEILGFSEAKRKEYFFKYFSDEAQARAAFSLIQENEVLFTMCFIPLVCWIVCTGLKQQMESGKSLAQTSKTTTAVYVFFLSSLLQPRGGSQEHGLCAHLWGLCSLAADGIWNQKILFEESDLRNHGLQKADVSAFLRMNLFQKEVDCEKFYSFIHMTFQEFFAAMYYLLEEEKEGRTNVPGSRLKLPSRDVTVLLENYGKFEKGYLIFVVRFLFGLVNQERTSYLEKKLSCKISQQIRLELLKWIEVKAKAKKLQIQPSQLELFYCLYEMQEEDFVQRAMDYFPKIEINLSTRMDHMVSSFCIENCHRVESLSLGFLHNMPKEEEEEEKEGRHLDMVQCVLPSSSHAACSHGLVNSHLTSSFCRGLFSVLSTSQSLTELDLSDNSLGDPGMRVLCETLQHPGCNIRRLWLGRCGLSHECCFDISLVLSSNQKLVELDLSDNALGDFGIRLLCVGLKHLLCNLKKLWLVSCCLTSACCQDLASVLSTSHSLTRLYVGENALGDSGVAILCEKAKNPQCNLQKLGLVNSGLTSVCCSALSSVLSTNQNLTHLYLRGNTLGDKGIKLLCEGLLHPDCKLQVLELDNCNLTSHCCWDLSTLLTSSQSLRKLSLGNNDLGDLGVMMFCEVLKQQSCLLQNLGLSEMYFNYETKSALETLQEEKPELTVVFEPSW
row,Structure (SMILES),IC50 [nM]
1,Cc1nc(N[C@@H]2CCCN(C)C2)nnc1-c1ccc(C(F)(F)F)cc1O,< 1
2,Cc1nc(N[C@@H]2CCCN(C)C2)nnc1-c1ccc(C2CC2)cc1O,< 1
3,COc1ccc(-c2nnc(N[C@@H]3CCCN(C)C3)nc2C)c(O)c1,< 1

# Now from value to compound:
row,IC50 [nM],Structure (SMILES)
1,< 1,Cc1nc(N[C@@H]2CCCN(C)C2)nnc1-c1ccc(Cl)cc1O
2,< 1,COc1cc(O)c(-c2nnc(N[C@@H]3CCCN(C)C3)nc2C)c(F)c1
3,< 1,Cc1cc(O)c(-c2nnc(N[C@@H]3CCCN(C)C3)nc2C)c(F)c1
